Measured values from the supplement of paper PMC6045584.
± gives the standard deviation of the averaged measurements.

How the values were obtained:
[1] = compound: CCN(CC)CCCCNc1ncc2cc(-c3cc(OC)cc(OC)c3)c(NC(=O)NC(C)(C)C)nc2n1; test: surviving fraction relative to DMSO-only wells; higher = less growth inhibition; conditions: exposure time: 5 days
Procedure, shortened: (§1)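 Viability was determined by CellTiter-Glo luminescence, expressed as surviving fraction normalised to the median of DMSO-only wells. The cells were log-phase tumour cell lines seeded at 250–500 per well in 384-well plates and, after 24 hours, exposed continuously for five days to inhibitors at 0.5, 1, 5, 10, 50, 100, 500 and 1000 nM. Three screens per line were run, keeping only lines with replicate Pearson r >0.7 and median Z' >0.3.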

[2] = compound: Nc1ncn([C@H]2C[C@H](O)[C@@H](CO)O2)c(=O)n1 [DECITABINE]; test: as above; conditions: exposure time: 5 days
Procedure, shortened: as §1

In the case of SUM44 BREAST, the surviving fraction ([1]; 0.5 nM) is reported as 0.956 ± 0.064, the surviving fraction ([1]; 1 nM) is reported as 0.928 ± 0.04 and the surviving fraction ([1]; 5 nM) is reported as 1.03 ± 0.019. It also gave a surviving fraction ([1]; 10 nM) of 1.04 ± 0.087, a surviving fraction ([1]; 50 nM) of 1.04 ± 0.095 and a surviving fraction ([1]; 100 nM) of 1.04 ± 0.094. For the same test system, the surviving fraction ([1]; 500 nM) was 0.985 ± 0.026, the surviving fraction ([1]; 1000 nM) was 1.03 ± 0.037 and the surviving fraction ([2]; 0.5 nM) was 1.15 ± 0.17. For the same test system, the surviving fraction ([2]; 1 nM) was 1.1 ± 0.16, the surviving fraction ([2]; 5 nM) was 1.17 ± 0.23 and the surviving fraction ([2]; 10 nM) was 1.14 ± 0.17. The surviving fraction ([2]; 50 nM) was 1.31 ± 0.26, the surviving fraction ([2]; 100 nM) was 1.23 ± 0.15 and the surviving fraction ([2]; 500 nM) was 1.13 ± 0.12. The surviving fraction ([2]; 1000 nM) was 1.15 ± 0.069.
MDAMB134 BREAST gave a surviving fraction ([1]; 0.5 nM) of 1 ± 0.079, a surviving fraction ([1]; 1 nM) of 0.807 ± 0.069 and a surviving fraction ([1]; 5 nM) of 0.863 ± 0.03. The surviving fraction ([1]; 10 nM) was 0.977 ± 0.23, the surviving fraction ([1]; 50 nM) was 0.872 ± 0.073 and the surviving fraction ([1]; 100 nM) was 0.902 ± 0.069. The surviving fraction ([1]; 500 nM) was 0.829 ± 0.064, the surviving fraction ([1]; 1000 nM) was 0.873 ± 0.05 and the surviving fraction ([2]; 0.5 nM) was 0.979 ± 0.082. It also gave a surviving fraction ([2]; 1 nM) of 1.06 ± 0.26, a surviving fraction ([2]; 5 nM) of 1.04 ± 0.1 and a surviving fraction ([2]; 10 nM) of 1.02 ± 0.023. The surviving fraction ([2]; 50 nM) was 1.1 ± 0.12, the surviving fraction ([2]; 100 nM) was 1.25 ± 0.059 and the surviving fraction ([2]; 500 nM) was 1.15 ± 0.042. For the same test system, the surviving fraction ([2]; 1000 nM) was 1.22 ± 0.016.
For MHM BONE, the surviving fraction ([1]; 0.5 nM) was 0.991 ± 0.026, the surviving fraction ([1]; 1 nM) was 0.993 ± 0.014 and the surviving fraction ([1]; 5 nM) was 0.982 ± 0.023. For the same test system, the surviving fraction ([1]; 10 nM) was 1.001 ± 0.0095, the surviving fraction ([1]; 50 nM) was 0.964 ± 0.02 and the surviving fraction ([1]; 100 nM) was 0.915 ± 0.029. The surviving fraction ([1]; 500 nM) was 0.7063 ± 0.007, the surviving fraction ([1]; 1000 nM) was 0.664 ± 0.017 and the surviving fraction ([2]; 0.5 nM) was 1 ± 0.029. For the same test system, the surviving fraction ([2]; 1 nM) was 1 ± 0.07, the surviving fraction ([2]; 5 nM) was 1.02 ± 0.04 and the surviving fraction ([2]; 10 nM) was 1.02 ± 0.062. For the same test system, the surviving fraction ([2]; 50 nM) was 1.05 ± 0.044, the surviving fraction ([2]; 100 nM) was 1.02 ± 0.023 and the surviving fraction ([2]; 500 nM) was 1.08 ± 0.042. It also gave a surviving fraction ([2]; 1000 nM) of 1.04 ± 0.038.
Test System HCT15 LARGE INTESTINE has a surviving fraction ([1]; 0.5 nM) of 0.875 ± 0.033, a surviving fraction ([1]; 1 nM) of 0.981 ± 0.02 and a surviving fraction ([1]; 5 nM) of 0.971 ± 0.025. It also gave a surviving fraction ([1]; 10 nM) of 1.01 ± 0.012, a surviving fraction ([1]; 50 nM) of 0.963 ± 0.027 and a surviving fraction ([1]; 100 nM) of 0.9977 ± 0.0093. It also gave a surviving fraction ([1]; 500 nM) of 0.987 ± 0.011, a surviving fraction ([1]; 1000 nM) of 1.06 ± 0.047 and a surviving fraction ([2]; 0.5 nM) of 1 ± 0.02. It also gave a surviving fraction ([2]; 1 nM) of 0.982 ± 0.056, a surviving fraction ([2]; 5 nM) of 0.967 ± 0.021 and a surviving fraction ([2]; 10 nM) of 0.961 ± 0.017. It also gave a surviving fraction ([2]; 50 nM) of 1.05 ± 0.032, a surviving fraction ([2]; 100 nM) of 0.987 ± 0.032 and a surviving fraction ([2]; 500 nM) of 0.835 ± 0.026. For the same test system, the surviving fraction ([2]; 1000 nM) was 0.893 ± 0.032.
In the case of VCAP PROSTATE, the surviving fraction ([1]; 0.5 nM) is reported as 0.963 ± 0.068, the surviving fraction ([1]; 1 nM) is reported as 1.07 ± 0.06 and the surviving fraction ([1]; 5 nM) is reported as 1.04 ± 0.047. The surviving fraction ([1]; 10 nM) was 1.1 ± 0.028, the surviving fraction ([1]; 50 nM) was 1.06 ± 0.034 and the surviving fraction ([1]; 100 nM) was 1.12 ± 0.069. For the same test system, the surviving fraction ([1]; 500 nM) was 0.998 ± 0.059, the surviving fraction ([1]; 1000 nM) was 1.01 ± 0.055 and the surviving fraction ([2]; 0.5 nM) was 1.11 ± 0.099. For the same test system, the surviving fraction ([2]; 1 nM) was 1.17 ± 0.031, the surviving fraction ([2]; 5 nM) was 1.25 ± 0.14 and the surviving fraction ([2]; 10 nM) was 1.18 ± 0.095. It also gave a surviving fraction ([2]; 50 nM) of 1.09 ± 0.035, a surviving fraction ([2]; 100 nM) of 1.09 ± 0.11 and a surviving fraction ([2]; 500 nM) of 1.01 ± 0.094. The surviving fraction ([2]; 1000 nM) was 0.875 ± 0.062.
Work on HCC78 LUNG yielded a surviving fraction ([1]; 0.5 nM) of 0.977 ± 0.31, a surviving fraction ([1]; 1 nM) of 0.856 ± 0.038 and a surviving fraction ([1]; 5 nM) of 0.997 ± 0.23. The surviving fraction ([1]; 10 nM) was 0.968 ± 0.07, the surviving fraction ([1]; 50 nM) was 0.935 ± 0.19 and the surviving fraction ([1]; 100 nM) was 0.917 ± 0.093. For the same test system, the surviving fraction ([1]; 500 nM) was 0.964 ± 0.097, the surviving fraction ([1]; 1000 nM) was 0.941 ± 0.084 and the surviving fraction ([2]; 0.5 nM) was 0.979 ± 0.07. The surviving fraction ([2]; 1 nM) was 1.01 ± 0.11, the surviving fraction ([2]; 5 nM) was 0.899 ± 0.15 and the surviving fraction ([2]; 10 nM) was 0.913 ± 0.12. It also gave a surviving fraction ([2]; 50 nM) of 0.777 ± 0.21, a surviving fraction ([2]; 100 nM) of 0.709 ± 0.025 and a surviving fraction ([2]; 500 nM) of 0.213 ± 0.037. It also gave a surviving fraction ([2]; 1000 nM) of 0.166 ± 0.036.
SUM149.B1*.S BREAST was tested, and the surviving fraction ([1]; 0.5 nM) was 0.852 ± 0.049, the surviving fraction ([1]; 1 nM) was 1 ± 0.017 and the surviving fraction ([1]; 5 nM) was 0.952 ± 0.024. The surviving fraction ([1]; 10 nM) was 1.02 ± 0.021, the surviving fraction ([1]; 50 nM) was 0.933 ± 0.029 and the surviving fraction ([1]; 100 nM) was 1.06 ± 0.041. It also gave a surviving fraction ([1]; 500 nM) of 1.03 ± 0.011, a surviving fraction ([1]; 1000 nM) of 1.08 ± 0.017 and a surviving fraction ([2]; 0.5 nM) of 1.09 ± 0.037. For the same test system, the surviving fraction ([2]; 1 nM) was 1.03 ± 0.044, the surviving fraction ([2]; 5 nM) was 1.05 ± 0.06 and the surviving fraction ([2]; 10 nM) was 0.98 ± 0.058. It also gave a surviving fraction ([2]; 50 nM) of 0.749 ± 0.062, a surviving fraction ([2]; 100 nM) of 0.66 ± 0.062 and a surviving fraction ([2]; 500 nM) of 0.553 ± 0.043. The surviving fraction ([2]; 1000 nM) was 0.496 ± 0.061.
With NY BONE the surviving fraction ([1]; 0.5 nM) was 0.932 ± 0.031, the surviving fraction ([1]; 1 nM) was 0.942 ± 0.013 and the surviving fraction ([1]; 5 nM) was 0.964 ± 0.015. For the same test system, the surviving fraction ([1]; 10 nM) was 1 ± 0.029, the surviving fraction ([1]; 50 nM) was 0.895 ± 0.019 and the surviving fraction ([1]; 100 nM) was 0.701 ± 0.015. It also gave a surviving fraction ([1]; 500 nM) of 0.337 ± 0.019, a surviving fraction ([1]; 1000 nM) of 0.31 ± 0.004 and a surviving fraction ([2]; 0.5 nM) of 0.9793 ± 0.0075. It also gave a surviving fraction ([2]; 1 nM) of 0.955 ± 0.016, a surviving fraction ([2]; 5 nM) of 1 ± 0.028 and a surviving fraction ([2]; 10 nM) of 0.939 ± 0.018. It also gave a surviving fraction ([2]; 50 nM) of 0.921 ± 0.021, a surviving fraction ([2]; 100 nM) of 0.843 ± 0.054 and a surviving fraction ([2]; 500 nM) of 0.649 ± 0.036. It also gave a surviving fraction ([2]; 1000 nM) of 0.479 ± 0.042.
CHLA90 AUTONOMIC GANGLIA gave a surviving fraction ([1]; 0.5 nM) of 0.906 ± 0.053, a surviving fraction ([1]; 1 nM) of 1.02 ± 0.046 and a surviving fraction ([1]; 5 nM) of 0.892 ± 0.058. For the same test system, the surviving fraction ([1]; 10 nM) was 0.9023 ± 0.0046, the surviving fraction ([1]; 50 nM) was 0.907 ± 0.036 and the surviving fraction ([1]; 100 nM) was 0.912 ± 0.022. For the same test system, the surviving fraction ([1]; 500 nM) was 0.7 ± 0.035, the surviving fraction ([1]; 1000 nM) was 0.598 ± 0.072 and the surviving fraction ([2]; 0.5 nM) was 0.953 ± 0.073. It also gave a surviving fraction ([2]; 1 nM) of 0.934 ± 0.085, a surviving fraction ([2]; 5 nM) of 0.953 ± 0.06 and a surviving fraction ([2]; 10 nM) of 0.902 ± 0.017. The surviving fraction ([2]; 50 nM) was 1.01 ± 0.12, the surviving fraction ([2]; 100 nM) was 0.994 ± 0.099 and the surviving fraction ([2]; 500 nM) was 0.984 ± 0.079. It also gave a surviving fraction ([2]; 1000 nM) of 1 ± 0.063.
SAOS2 BONE was tested, and the surviving fraction ([1]; 0.5 nM) was 1.09 ± 0.035, the surviving fraction ([1]; 1 nM) was 1.195 ± 0.011 and the surviving fraction ([1]; 5 nM) was 1.2 ± 0.077. For the same test system, the surviving fraction ([1]; 10 nM) was 1.21 ± 0.042, the surviving fraction ([1]; 50 nM) was 1.23 ± 0.043 and the surviving fraction ([1]; 100 nM) was 1.19 ± 0.037. It also gave a surviving fraction ([1]; 500 nM) of 0.995 ± 0.051, a surviving fraction ([1]; 1000 nM) of 0.906 ± 0.054 and a surviving fraction ([2]; 0.5 nM) of 1.09 ± 0.027. For the same test system, the surviving fraction ([2]; 1 nM) was 1.11 ± 0.037, the surviving fraction ([2]; 5 nM) was 1.1 ± 0.027 and the surviving fraction ([2]; 10 nM) was 1.02 ± 0.042. It also gave a surviving fraction ([2]; 50 nM) of 1.01 ± 0.051, a surviving fraction ([2]; 100 nM) of 0.88 ± 0.07 and a surviving fraction ([2]; 500 nM) of 0.742 ± 0.057. It also gave a surviving fraction ([2]; 1000 nM) of 0.581 ± 0.12.
